≈ marks a conversion by molar mass, not a printed value. Where a name gives a salt, the structure may show the parent alone.
Experiments:
Vibrio fischeri [1] = assay: Acute toxicity of gaseous VOCs to hydrogel-microsphere-fixed Vibrio fischeri in exposure chamber (luminescence change); type: cell-based; conditions: for IC50: Aliivibrio fischeri; for minimum detection limit: no pre-concentration; for IC50 (15 min) Ratio: liquid IC50 / gaseous IC50, 15 min; for IC50 (30 min) Ratio: liquid IC50 / gaseous IC50, 30 min; for IC50 (45 min) Ratio: liquid IC50 / gaseous IC50, 45 min; for IC50 (60 min) Ratio: liquid IC50 / gaseous IC50, 60 min
Description: A method for using the exposure device for exposing microorganisms to gaseous pollutants provided in the present application includes steps as follows: • (1) preparing the hydrogel microspheres with microorganisms: culturing microorganisms in a culture medium dissolved with 1.5% of sodium alginate for 3 h to 4 h, and after OD600 is greater than 0.1, uniformly dripping the microorganisms into a 1.5% calcium chloride solution through a peristaltic pump at a rate of 1.5 ml/min to obtain the hydrogel microspheres with microorganisms; taking out and placing the hydrogel microspheres in a culture medium for use; • (2) sequentially loading the hydrogel microspheres fixed with microorganisms in the multi-well exposure tray according to a detection requirement, and detecting an initial intensity of fluorescent signals of the hydrogel microspheres fixed with microorganisms; • (3) fixing the multi-well exposure tray to a lower end of the vertical pipe of the T-shaped air flow-mixing pipe through threads, and connecting the pressurizing air outlet pipe to the T-shaped air flow-mixing pipe, wherein silicone seal gaskets are mounted at all threaded connections to ensure leakproofness of the exposure device; • (4) placing the exposure device in an in-situ multi-toxicity endpoint detection system for VOCs or an in-situ multi-toxicity endpoint detection system for atmospheric particulate matter to make the gaseous pollutants enter the exposure device through the first and second depressurizing air inlet pipes at a flow rate ranging from 0.3 L/min to 2.0 L/min; and • (5) continuously introducing the gaseous pollutants for 15 min to 60 min, and then introducing clean air for 8 min to 10 min to completely replace the gaseous pollutants in the detection system; removing the multi-well exposure tray, and sequentially placing the hydrogel microspheres in the multi-well exposure tray into a 96 well plate, and detecting a final intensity of fluorescent signals of the hydrogel microspheres fixed with microorganisms in the plurality of channels by using a microplate reader to obtain an intensity change of fluorescent signals.
A commercial VOCs generator is used to accurately generate seven different VOCs with nine gradient concentrations, involving aldehydes (formaldehyde and acetaldehyde), pyridines (pyridine), alcohols (n-butyl alcohol), acyls and ketones (acetylacetone), benzenes, and phenols (phenol). Natural luminescent bacteria Vibrio fischeri as a target, is fixed by using hydrogel microspheres, and is arranged in an exposure chamber. VOCs are sequentially introduced into the exposure chamber at a flow rate of 0.5 L/min. After exposure for 15 min, 30 min, 45 min, and 60 min, Vibrio fischeri is taken out, and intensity change of fluorescent signals of Vibrio fischeri are measured by using a microplate reader. Concentration-acute toxicity curves of the gaseous pollutant comprising different VOCs and mixed VOCs are fitted by using analysis software, to obtain the IC50 value of acute toxicity of the gaseous pollutants.

Vibrio fischeri [2] = conditions: concentration ratio 10 times
Description: (1) According to a detection requirement in this embodiment, the quantity of the multi-well exposure tray that need to be loaded is 1, and only one type of the hydrogel microspheres fixed with natural fluorescent microorganisms Vibrio fischeri is provided, and the quantity of hydrogel microspheres fixed with microorganisms that need to be used is 60. An initial fluorescence intensity of each hydrogel microsphere is detected and recorded, and the hydrogel microspheres are placed in the multi-well exposure tray, the multi-well exposure tray is loaded into the exposure device, and the detection system is sealed. […]
(4) The system-controlled vacuum pump at the distal end of the detection system and the vacuum pump of the gas circulation device are turned on, and the concentrated VOCs is introduced into the exposure device at 0.5 L/min, wherein exposure is set to last 15 min, 30 min, 45 min, and 60 min; and stability of the flowmeter of the gas circulation device and the system-controlled flowmeter at the distal end of the detection system during the process is monitored.
(5) After exposure to VOCs is completed, a microplate reader is used to measure final fluorescence intensity of each hydrogel microsphere, and changes of the initial fluorescence intensity and the final fluorescence intensity are obtained.

Vibrio fischeri [3] = assay: Acute toxicity exposure experiments of VOCs in a liquid state (conventional method); type: cell-based; conditions: for IC50: Aliivibrio fischeri
[4] = tested on: recombined Escherichia coli carrying plasmids with different gene pathway; assay: Genotoxicity of gaseous dimethyl sulfate with the in-situ multi-toxicity endpoint detection system for VOCs (Embodiment 1); conditions: exposure 20-500 mg/m^3, 15 min, 0.5 L/min
Description: Embodiment 1: Genotoxicity of an artificial gaseous pollutant (dimethyl sulfate) is detected by using the in-situ multi-toxicity endpoint detection system for volatile organic compounds (VOCs) constructed in the present application. Specific steps are as follows:
In this embodiment, a Tenax TA multi-well polymer adsorbent is selected as the adsorption material to be filled in an adsorber of the atmospheric pre-concentrator, and a mixed liquid of 50% of ethanol and 50% of pure water is added to the gas-washing bottle and the high-temperature steam generator.
(2) According to a detection requirement in this embodiment, the quantity of the multi-well exposure tray that need to be loaded is 6, 29 types of hydrogel microspheres fixed with recombined Escherichia coli carrying plasmids with different gene pathway are provided, and the quantity of each type of hydrogel microspheres fixed with microorganisms that need to be used is 15. An initial fluorescence intensity of each hydrogel microsphere is detected and recorded, and the hydrogel microspheres are placed in the multi-well exposure tray, the multi-well exposure tray is loaded into the exposure device, and the detection system is sealed. […]

[5] = 0.25 h, gaseous exposure, 15 min, 0.5 L/min, read-out: IC50 (15 min) Gaseous
[6] = 0.5 h, gaseous exposure, 30 min, 0.5 L/min, read-out: IC50 (30 min) Gaseous
[7] = 0.75 h, gaseous exposure, 45 min, 0.5 L/min, read-out: IC50 (45 min) Gaseous
[8] = 1 h, gaseous exposure, 60 min, 0.5 L/min, read-out: IC50 (60 min) Gaseous
[9] = 0.25 h, 15 min, read-out: IC50 (15 min) Liquid
[10] = 0.5 h, 30 min, read-out: IC50 (30 min) Liquid
[11] = 0.75 h, 45 min, read-out: IC50 (45 min) Liquid
[12] = 1 h, 60 min, read-out: IC50 (60 min) Liquid

Compound | IC50 (Vibrio fischeri [1]; [5]) | IC50 (Vibrio fischeri [1]; [6]) | IC50 (Vibrio fischeri [1]; [7]) | IC50 (Vibrio fischeri [1]; [8]) | IC50 (15 min) Ratio (Vibrio fischeri [1]) | IC50 (30 min) Ratio (Vibrio fischeri [1]) | IC50 (45 min) Ratio (Vibrio fischeri [1]) | IC50 (60 min) Ratio (Vibrio fischeri [1]) | IC50 (Vibrio fischeri [3]; [9]) | IC50 (Vibrio fischeri [3]; [10]) | IC50 (Vibrio fischeri [3]; [11]) | IC50 (Vibrio fischeri [3]; [12]) | also measured
Oc1ccccc1 [Phenol] | 0.0689 µg/mL (≈ 0.732 µM) | 0.0363 µg/mL (≈ 0.386 µM) | 0.028 µg/mL (≈ 0.298 µM) | 0.0202 µg/mL (≈ 0.215 µM) | 3921 | 7991 | 11424 | 15818 | 270 µg/mL (≈ 2870 µM) | 290 µg/mL (≈ 3080 µM) | 320 µg/mL (≈ 3400 µM) | 320 µg/mL (≈ 3400 µM) | minimum detection limit (Vibrio fischeri [1]; gaseous exposure): 20.31 mg/m^3; minimum detection limit at concentration ratio of 10 times (Vibrio fischeri [2]): 2.03 mg/m^3
COS(=O)(=O)OC [dimethyl sulfate] | – | – | – | – | – | – | – | – | – | – | – | – | gene pathways significantly upregulated (of 29 key gene pathways) [4]: Nine of these gene pathways are significantly upregulated; genotoxicity / toxicity effects indicated [4]: may cause inhibition of cell division, oxidative stress, protein stress, and severe DNA damage, mutation, and recombination
CC(=O)CC(C)=O [Acetylacetone] | 0.28 µg/mL (≈ 2.8 µM) | 0.19 µg/mL (≈ 1.9 µM) | 0.13 µg/mL (≈ 1.3 µM) | 0.11 µg/mL (≈ 1.1 µM) | 1000 | 1316 | 2385 | 2273 | 280 µg/mL (≈ 2800 µM) | 250 µg/mL (≈ 2500 µM) | 310 µg/mL (≈ 3100 µM) | 250 µg/mL (≈ 2500 µM) | –
C=O [Formaldehyde] | 0.00481 µg/mL (≈ 0.16 µM) | 0.00234 µg/mL (≈ 0.0779 µM) | 0.00181 µg/mL (≈ 0.0603 µM) | 0.00129 µg/mL (≈ 0.043 µM) | 3395 | 6684 | 8519 | 11457 | 16.3 µg/mL (≈ 544 µM) | 15.6 µg/mL (≈ 521 µM) | 15.4 µg/mL (≈ 514 µM) | 14.8 µg/mL (≈ 492 µM) | minimum detection limit (Vibrio fischeri [1]; gaseous exposure): 1.3 mg/m^3; minimum detection limit at concentration ratio of 10 times (Vibrio fischeri [2]): 0.13 mg/m^3
CCCCO [N-butyl alcohol] | – | – | – | – | 1705 | 2521 | 3472 | 4625 | – | – | – | – | IC50 (15 min) Gaseous (Vibrio fischeri [1]; gaseous exposure, 15 min, 0.5 L/min): 1.05 µg/mL (≈ 14.2 µM); IC50 (30 min) Gaseous (Vibrio fischeri [1]; gaseous exposure, 30 min, 0.5 L/min): 0.73 µg/mL (≈ 9.85 µM); IC50 (45 min) Gaseous (Vibrio fischeri [1]; gaseous exposure, 45 min, 0.5 L/min): 0.53 µg/mL (≈ 7.15 µM); IC50 (60 min) Gaseous (Vibrio fischeri [1]; gaseous exposure, 60 min, 0.5 L/min): 0.40 µg/mL (≈ 5.4 µM); IC50 (15 min) Liquid (Vibrio fischeri [3]; 15 min): 1790 µg/mL (≈ 24100 µM); IC50 (30 min) Liquid (Vibrio fischeri [3]; 30 min): 1840 µg/mL (≈ 24800 µM); IC50 (45 min) Liquid (Vibrio fischeri [3]; 45 min): 1840 µg/mL (≈ 24800 µM); IC50 (60 min) Liquid (Vibrio fischeri [3]; 60 min): 1850 µg/mL (≈ 25000 µM)
CC=O [Acetaldehyde] | 2.12 µg/mL (≈ 48.1 µM) | 1.29 µg/mL (≈ 29.3 µM) | 0.83 µg/mL (≈ 18.8 µM) | 0.49 µg/mL (≈ 11.1 µM) | 302 | 450 | 699 | 1224 | 640 µg/mL (≈ 14500 µM) | 580 µg/mL (≈ 13200 µM) | 580 µg/mL (≈ 13200 µM) | 600 µg/mL (≈ 13600 µM) | –
c1ccncc1 [Pyridine] | 1.5 µg/mL (≈ 19 µM) | 1.25 µg/mL (≈ 15.8 µM) | 0.88 µg/mL (≈ 11.1 µM) | 0.5 µg/mL (≈ 6.32 µM) | 680 | 864 | 1295 | 2500 | 1020 µg/mL (≈ 12900 µM) | 1080 µg/mL (≈ 13700 µM) | 1140 µg/mL (≈ 14400 µM) | 1250 µg/mL (≈ 15800 µM) | –

Source: patent publication US20250115941A1, “Exposure device for exposing microorganisms to gaseous pollutants and detection system thereof” (priority 2023, published 2025)
